# Results as given in patent US20150258052A1, “METHODS OF USING FEXARAMINE AND AGENTS THAT INCREASE SYMPATHETIC NERVOUS SYSTEM ACTIVITY TO PROMOTE BROWNING OF WHITE ADIPOSE TISSUE” (Salk Institute for Biological Studies, priority 2014, published 2015).
# Experiments:
# [1] = LC/MS quantification of serum fexaramine after PO or IP administration; type: in vivo, mice
# Procedure: FIG. 1D is a schematic diagram illustrating an experimental procedure used to evaluate fexaramine, where mice were treated with vehicle or fexaramine (100 mg/kg) via PO or IP injection, and LC/MS quantification of serum fexaramine was conducted five days later.
# FIG. 1E is a bar chart illustrating serum fexaramine concentrations after administration as described in FIG. 1D. Data represent mean values±STD. Statistical analysis was performed with the Student's t test (*p<0.05, **p<0.01).
# Upon exploration of the in vivo effects of fexaramine (Fex) administration, it was discovered that due to ineffectual absorption, oral (PO) and intraperitoneal (IP) drug delivery produced very different effects (FIGS. 1D and 1E).
# normal chow-fed mice = assay: Chronic oral fexaramine in normal chow-fed mice; type: in vivo
# Procedure: FIGS. 3A-3D are line graphs and a bar graph showing the effects of fexaramine administration in normal chow-fed mice. The mice were treated with vehicle or fexaramine (100 mg/kg) via PO for 5 weeks. Data represent the mean±STD. Statistical analysis as performed with the Student's t test (*p<0.05, **p<0.01).
# To investigate the physiological effects of intestinal FXR activation by fexaramine, mice were subjected to chronic fexaramine (100 mg/kg Fex) PO treatment for 5 weeks.
# DIO mice = assay: Hyperinsulinemic-euglycemic clamp and liver analysis in Fex-treated DIO mice; type: in vivo
# Procedure: Mice were fed HFD for 14 weeks and then subjected to daily PO injection of vehicle or fexaramine (100 mg/kg) for 5 weeks with HFD. In the bar graphs, open bars are vehicle, solid bars are fexaramine, and data represent the mean±STD. Statistical analysis was performed with the Student's t test (*p<0.05, **p<0.01).
# FIGS. 15I-15K are a line graph and two bar graphs showing the effect of fexaramine treatment on body weight, insulin-stimulated GDR, and fasting insulin levels. Mice were fed HFD for 14 weeks, and then administered daily oral injections of vehicle or fexaramine (100 mg/kg) for 3 weeks with HFD. The mice treated with fexaramine were initially heavier (by 2-3 grams). Three weeks after treatment, a clamp study was performed on the mice. Data represent the mean±STD. Statistical analysis was performed with the Student's t test (*p<0.05, **p<0.01).
# Liver insulin resistance has been linked to obesity-induced hepatic steatosis (Cohen et al., Science 332:1519-1523, 2011). […] Furthermore, decreased serum alanine aminotransferase (ALT) levels were measured in Fex-treated mice, indicating reduced HFD-induced liver damage (FIG. 15H). Thus, in DIO mice Fex promotes hepatic insulin sensitization, reduced steatosis, improved metabolic markers, decreased ALT and enhanced BAT activity.
# [2] = DIO mice, chronic Fex treatment
compound,measurement,setting,value
"COC(=O)/C=C/c1cccc(N(Cc2ccc(-c3ccc(N(C)C)cc3)cc2)C(=O)C2CCCCC2)c1 [Fex, fexaramine]",serum Fex level after PO relative to IP levels,"[1]; acute 100 mg/kg, PO compared to IP",10%
same,concentration at 5 days,"[1]; mouse, serum, PO 100 mg/kg, read-out: serum levels of Fex after PO administration",< 25 nM
same,"weight gain, basal metabolic activity and glucose tolerance","normal chow-fed mice; chow-fed mice, 100 mg/kg PO 5 weeks",indistinguishable from vehicle-treated mice
same,glucose homeostasis,"normal chow-fed mice; normal chow-fed mice, range of doses",no effects observed
same,"lipid droplets in liver (histology, hepatic steatosis)","DIO mice; DIO mice, 100 mg/kg PO 5 weeks",reduction in lipid droplets
same,serum alanine aminotransferase (ALT) levels,"DIO mice; DIO mice, 100 mg/kg PO 5 weeks",decreased
same,hepatic expression of gluconeogenic and lipogenic genes,DIO mice; [2],reduced hepatic expression
same,hepatic triglycerides,DIO mice; [2],marked decrease
same,insulin-mediated suppression of HGP,"DIO mice; hyperinsulinemic-euglycemic clamp, versus control DIO mice",marked increase
same,"basal HGP, GDR, IS-GDR, FFA suppression and fasting insulin levels","DIO mice; weight-matched cohorts, hyperinsulinemic-euglycemic clamp",No differences
